Assay results published in patent US6525001B1, “Substituted pyrimidine and pyridine herbicides” (Mid-American Commercialization Corporation, priority 1997, dated 2003).

How the values were obtained:
Assay type in all cases: in vivo
Parameters in all cases: key: 0 is no effect; 10 is complete control
[1] = system: bedstraw (Galium aparine); assay: Test B pre-/postemergence; details: for Bedstraw plant response rating: Preemergence
Summary of the method: (§1)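 Seeds were planted and sprayed preemergence, while plants at 2 to 18 cm (1- to 4-leaf stage) were sprayed postemergence at the same time, with test chemical in a non-phytotoxic solvent mixture containing surfactant. After twelve to sixteen days in a greenhouse, injury was rated visually against untreated controls on a 0–10 scale.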

[2] = system: blackgrass (Alopecurus myosuroides); assay: Test B pre-/postemergence; details: for Blackgrass plant response rating: Preemergence
Summary of the method: as §1

[3] = system: broadleaf signalgrass (Brachiaria decumbens); assay: Test B pre-/postemergence; details: for B. signalgrass plant response rating: Preemergence
Summary of the method: as §1

[4] = system: cocklebur (Xanthium strumarium); assay: Test B pre-/postemergence; details: for Cocklebur plant response rating: Preemergence
Summary of the method: as §1

corn (Zea mays) = assay: Test B pre-/postemergence; details: for Corn plant response rating: Preemergence
Summary of the method: as §1

[5] = system: crabgrass (Digitaria sanguinalis); assay: Test B pre-/postemergence; details: for Crabgrass plant response rating: Preemergence
Summary of the method: as §1

[6] = system: giant foxtail (Setaria faberii); assay: Test B pre-/postemergence
Summary of the method: as §1

[7] = system: momingglory (Ipomoea hederacea); assay: Test B pre-/postemergence
Summary of the method: as §1

[8] = system: pigweed (Amaranthus retroflexus); assay: Test B pre-/postemergence
Summary of the method: as §1

[9] = system: purple nutsedge (Cyperus rotundus); assay: Test B pre-/postemergence
Summary of the method: as §1

rape (Brassica napus) = assay: Test B pre-/postemergence
Summary of the method: as §1

soybean (Glycine max) = assay: Test B pre-/postemergence
Summary of the method: as §1

[10] = system: sugar beet (Beta vulgaris); assay: Test B pre-/postemergence
Summary of the method: as §1

[11] = system: velvetleaf (Abutilon theophrasti); assay: Test B pre-/postemergence
Summary of the method: as §1

[12] = system: wheat (Triticum aestivum); assay: Test B pre-/postemergence
Summary of the method: as §1

wild oat (Avena fatua) = assay: Test B pre-/postemergence
Summary of the method: as §1

[13] = system: bamyardgrass (Echinochloa crus-galli); assay: Test B flood test
Summary of the method: (§2)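 Plants were grown to the 2-leaf stage before treatment with test chemical, then held in a greenhouse for twelve to sixteen days. Injury was visually rated against untreated controls on a 0–10 scale, where 0 is no effect and 10 is complete control.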

[14] = system: duck salad (Heteranthera limosa); assay: Test B flood test
Summary of the method: as §2

rice (Oryza sativa) = assay: Test B flood test
Summary of the method: as §2

[15] = system: smallflower flatsedge (Cyperus difformis); assay: Test B flood test
Summary of the method: as §2

[16] = Rate 250 g/ha, Postemergence (so in the source)
[17] = Rate 62 g/ha, Postemergence (flood test)
[18] = Rate 125 g/ha, Postemergence, flood test
[19] = Rate 250 g/ha, Postemergence (flood test species)
[20] = Rate 125 g/ha, Postemergence section (flood test species)

COc1cnc(-n2ccc(C(F)(F)F)n2)nc1Cc1cccc(C(F)(F)F)c1 [Compound 45]
0: Plant response rating, Bedstraw ([1]; Rate 62 g/ha, Postemergence) | Bedstraw plant response rating ([1]; Rate 62 g/ha) | Plant response rating, Bedstraw ([1]; Rate 125 g/ha, Postemergence) | Bedstraw plant response rating ([1]; Rate 125 g/ha) | Plant response rating, Bedstraw ([1]; Rate 250 g/ha, Postemergence) | Plant response rating, Bedstraw [1, 16] | Plant response rating, Blackgrass ([2]; Rate 62 g/ha, Postemergence) | Blackgrass plant response rating ([2]; Rate 62 g/ha) | Plant response rating, Blackgrass ([2]; Rate 125 g/ha, Postemergence) | Blackgrass plant response rating ([2]; Rate 125 g/ha) | Plant response rating, Blackgrass ([2]; Rate 250 g/ha, Postemergence) | Plant response rating, Blackgrass [2, 16] | Plant response rating, B. signalgrass ([3]; Rate 62 g/ha, Postemergence) | B. signalgrass plant response rating ([3]; Rate 62 g/ha) | Plant response rating, B. signalgrass ([3]; Rate 125 g/ha, Postemergence) | B. signalgrass plant response rating ([3]; Rate 125 g/ha) | Plant response rating, B. signalgrass ([3]; Rate 250 g/ha, Postemergence) | Plant response rating, B. signalgrass ([3]; Rate 250 g/ha, Postemergence as printed in head r139 (second section for compounds 26-50)) | Plant response rating, Cocklebur ([4]; Rate 62 g/ha, Postemergence) | Cocklebur plant response rating ([4]; Rate 62 g/ha) | Plant response rating, Cocklebur ([4]; Rate 125 g/ha, Postemergence) | Cocklebur plant response rating ([4]; Rate 125 g/ha) | Plant response rating, Cocklebur ([4]; Rate 250 g/ha, Postemergence) | Plant response rating, Cocklebur [4, 16] | Plant response rating, Corn (corn (Zea mays); Rate 62 g/ha, Postemergence) | Corn plant response rating (corn (Zea mays); Rate 62 g/ha) | Plant response rating, Corn (corn (Zea mays); Rate 125 g/ha, Postemergence) | Corn plant response rating (corn (Zea mays); Rate 125 g/ha) | Plant response rating, Corn (corn (Zea mays); Rate 250 g/ha, Postemergence) | Plant response rating, Corn (corn (Zea mays); [16]) | Plant response rating, Crabgrass ([5]; Rate 62 g/ha, Postemergence) | Crabgrass plant response rating ([5]; Rate 62 g/ha) | Plant response rating, Crabgrass ([5]; Rate 125 g/ha, Postemergence) | Crabgrass plant response rating ([5]; Rate 125 g/ha) | Plant response rating, Crabgrass ([5]; Rate 250 g/ha, Postemergence) | Plant response rating, Crabgrass [5, 16] | Plant response rating, Giant foxtail ([6]; Rate 62 g/ha, Postemergence) | Giant foxtail plant response rating ([6]; Rate 62 g/ha, Preemergence) | Giant foxtail plant response rating ([6]; Rate 125 g/ha, Postemergence) | Giant foxtail plant response rating ([6]; Rate 125 g/ha, Preemergence) | Plant response rating, Giant foxtail ([6]; Rate 250 g/ha, Postemergence) | Plant response rating, Giant foxtail [6, 16] | Plant response rating, Morningglory ([7]; Rate 62 g/ha, Postemergence) | Morningglory plant response rating ([7]; Rate 62 g/ha, Preemergence) | Morningglory plant response rating ([7]; Rate 125 g/ha, Postemergence) | Morningglory plant response rating ([7]; Rate 125 g/ha, Preemergence) | Plant response rating, Morningglory ([7]; Rate 250 g/ha, Postemergence) | Plant response rating, Morningglory [7, 16] | Plant response rating, Redroot pigweed ([8]; Rate 62 g/ha, Postemergence) | Redroot pigweed plant response rating ([8]; Rate 62 g/ha, Preemergence) | Redroot pigweed plant response rating ([8]; Rate 125 g/ha, Postemergence) | Redroot pigweed plant response rating ([8]; Rate 125 g/ha, Preemergence) | Plant response rating, Redroot pigweed ([8]; Rate 250 g/ha, Postemergence) | Plant response rating, Redroot pigweed [8, 16] | Plant response rating, Nutsedge ([9]; Rate 62 g/ha, Postemergence) | Nutsedge plant response rating ([9]; Rate 62 g/ha, Preemergence) | Nutsedge plant response rating ([9]; Rate 125 g/ha, Postemergence) | Nutsedge plant response rating ([9]; Rate 125 g/ha, Preemergence) | Plant response rating, Nutsedge [9, 16] | Plant response rating, Rape (rape (Brassica napus); Rate 62 g/ha, Postemergence) | Rape plant response rating (rape (Brassica napus); Rate 62 g/ha, Preemergence) | Rape plant response rating (rape (Brassica napus); Rate 125 g/ha, Postemergence) | Rape plant response rating (rape (Brassica napus); Rate 125 g/ha, Preemergence) | Plant response rating, Rape (rape (Brassica napus); Rate 250 g/ha, Postemergence) | Plant response rating, Rape (rape (Brassica napus); [16]) | Plant response rating, Soybean (soybean (Glycine max); Rate 62 g/ha, Postemergence) | Soybean plant response rating (soybean (Glycine max); Rate 62 g/ha, Preemergence) | Soybean plant response rating (soybean (Glycine max); Rate 125 g/ha, Postemergence) | Plant response rating, Soybean (soybean (Glycine max); Rate 125 g/ha, Preemergence) | Plant response rating, Soybean (soybean (Glycine max); Rate 250 g/ha, Postemergence) | Plant response rating, Soybean (soybean (Glycine max); [16]) | Plant response rating, Sugarbeets ([10]; Rate 62 g/ha, Postemergence) | Sugarbeets plant response rating ([10]; Rate 62 g/ha, Preemergence) | Sugarbeets plant response rating ([10]; Rate 125 g/ha, Postemergence) | Plant response rating, Sugarbeets ([10]; Rate 125 g/ha, Preemergence) | Plant response rating, Sugarbeets ([10]; Rate 250 g/ha, Postemergence) | Plant response rating, Sugarbeets [10, 16] | Plant response rating, Velvetleaf ([11]; Rate 62 g/ha, Postemergence) | Velvetleaf plant response rating ([11]; Rate 62 g/ha, Preemergence) | Velvetleaf plant response rating ([11]; Rate 125 g/ha, Postemergence) | Plant response rating, Velvetleaf ([11]; Rate 125 g/ha, Preemergence) | Plant response rating, Velvetleaf ([11]; Rate 250 g/ha, Postemergence) | Plant response rating, Velvetleaf [11, 16] | Wheat plant response rating ([12]; Rate 62 g/ha, Postemergence) | Wheat plant response rating ([12]; Rate 62 g/ha, Preemergence) | Wheat plant response rating ([12]; Rate 125 g/ha, Postemergence) | Plant response rating, Wheat ([12]; Rate 125 g/ha, Preemergence) | Plant response rating, Wheat ([12]; Rate 250 g/ha, Postemergence) | Plant response rating, Wheat [12, 16] | Wild oats plant response rating (wild oat (Avena fatua); Rate 62 g/ha, Postemergence) | Wild oats plant response rating (wild oat (Avena fatua); Rate 62 g/ha, Preemergence) | Wild oats plant response rating (wild oat (Avena fatua); Rate 125 g/ha, Postemergence) | Plant response rating, Wild oats (wild oat (Avena fatua); Rate 125 g/ha, Preemergence) | Plant response rating, Wild oats (wild oat (Avena fatua); Rate 250 g/ha, Postemergence) | Plant response rating, Wild oats (wild oat (Avena fatua); [16]) | Plant response rating, Barnyardgrass [13, 17] | Plant response rating, Barnyardgrass [13, 18] | Plant response rating, Barnyardgrass [13, 19] | Plant response rating, Ducksalad [14, 17] | Plant response rating, Ducksalad [14, 18] | Plant response rating, Ducksalad [14, 19] | Plant response rating, Rice (rice (Oryza sativa); [17]) | Rice plant response rating (rice (Oryza sativa); [20]) | Plant response rating, Rice (rice (Oryza sativa); [19]) | Plant response rating, S. Flatsedge [15, 17] | S. Flatsedge plant response rating [15, 20] | Plant response rating, S. Flatsedge [15, 19]
